Legend:
Test in all cases: Enzymatic activity of PI3K isoforms, TR-FRET assay (PIP3 formation)
Type in all cases: biochemical
PI3Kβ = PI3Kβ (Homo sapiens (Human), UniProt P42338)
Procedure: (§1) Enzymatic activity of the class I PI3K isoforms was measured using a time-resolved fluorescence resonance energy transfer (TR-FRET) assay that monitors formation of the product 3,4,5-inositol triphosphate molecule (PIP3), as it competes with fluorescently labeled PIP3 for binding to the GRP-1 pleckstrin homology domain protein. An increase in […] product results in a decrease in TR-FRET signal as the labeled fluorophore is displaced from the GRP-1 protein binding site.
(§2) Class I PI3K isoforms were expressed and purified as heterodimeric recombinant proteins. All assay reagents and buffers for the TR-FRET assay were purchased from Millipore.
(§3) IC50 are reported in units of nM.

PI3Kδ = PI3Kδ (Homo sapiens (Human), UniProt O00329); conditions: bound given in nM
Procedure: as §1
(§4) Class I PI3K isoforms were expressed and purified as heterodimeric recombinant proteins. All assay reagents and buffers for the TR-FRET assay were purchased from Millipore. […] After an assay reaction time of 30 minutes at 25° C., reactions were terminated with a final concentration of 10 mM EDTA, 10 nM labeled-PIP3, and 35 nM Europium labeled GRP-1 detector protein before reading TR-FRET on an Envision plate reader (Ex: 340 nm; Em: 615/665 nm; 100 μs delay and 500 μs read window).
(§5) IC50 are reported in units of nM. These assays generally produced results within 3-fold of the reported mean.

PI3Kα = PI3Kα (Homo sapiens (Human), UniProt P42336); conditions: bound given in uM
Procedure: as §1, §4, §5

PI3Kγ = PI3Kγ (Homo sapiens (Human), UniProt P48736); conditions: bound given in nM
Procedure: as §1, §2, §3

Sequence of PI3Kα (P42336 whole entry): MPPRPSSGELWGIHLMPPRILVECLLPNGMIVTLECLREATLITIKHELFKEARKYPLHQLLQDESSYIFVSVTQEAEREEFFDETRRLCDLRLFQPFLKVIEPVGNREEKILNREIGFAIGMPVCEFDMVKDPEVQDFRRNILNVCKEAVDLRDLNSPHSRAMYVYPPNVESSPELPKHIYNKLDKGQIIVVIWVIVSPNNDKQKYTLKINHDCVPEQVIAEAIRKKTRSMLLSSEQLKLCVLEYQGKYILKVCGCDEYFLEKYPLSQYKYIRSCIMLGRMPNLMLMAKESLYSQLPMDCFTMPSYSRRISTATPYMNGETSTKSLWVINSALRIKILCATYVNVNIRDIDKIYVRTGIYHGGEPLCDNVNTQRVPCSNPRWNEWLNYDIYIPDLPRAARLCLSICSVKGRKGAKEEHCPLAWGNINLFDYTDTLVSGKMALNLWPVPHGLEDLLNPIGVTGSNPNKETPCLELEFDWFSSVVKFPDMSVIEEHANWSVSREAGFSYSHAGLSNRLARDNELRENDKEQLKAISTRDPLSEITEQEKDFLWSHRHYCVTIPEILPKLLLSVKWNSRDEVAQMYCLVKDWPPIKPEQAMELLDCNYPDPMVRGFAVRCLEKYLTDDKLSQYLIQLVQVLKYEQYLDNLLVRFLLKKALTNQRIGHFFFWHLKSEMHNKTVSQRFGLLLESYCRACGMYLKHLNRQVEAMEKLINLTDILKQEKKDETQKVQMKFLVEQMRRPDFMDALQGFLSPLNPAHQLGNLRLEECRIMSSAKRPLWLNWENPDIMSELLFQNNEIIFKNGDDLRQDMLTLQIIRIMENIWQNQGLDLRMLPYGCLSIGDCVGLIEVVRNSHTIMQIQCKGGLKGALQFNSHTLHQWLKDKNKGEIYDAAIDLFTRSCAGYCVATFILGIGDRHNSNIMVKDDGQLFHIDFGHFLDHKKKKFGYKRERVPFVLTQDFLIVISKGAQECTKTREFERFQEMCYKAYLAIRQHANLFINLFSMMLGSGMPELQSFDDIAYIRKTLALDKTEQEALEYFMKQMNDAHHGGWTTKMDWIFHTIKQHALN
Sequence of PI3Kα (P27986 whole entry partner): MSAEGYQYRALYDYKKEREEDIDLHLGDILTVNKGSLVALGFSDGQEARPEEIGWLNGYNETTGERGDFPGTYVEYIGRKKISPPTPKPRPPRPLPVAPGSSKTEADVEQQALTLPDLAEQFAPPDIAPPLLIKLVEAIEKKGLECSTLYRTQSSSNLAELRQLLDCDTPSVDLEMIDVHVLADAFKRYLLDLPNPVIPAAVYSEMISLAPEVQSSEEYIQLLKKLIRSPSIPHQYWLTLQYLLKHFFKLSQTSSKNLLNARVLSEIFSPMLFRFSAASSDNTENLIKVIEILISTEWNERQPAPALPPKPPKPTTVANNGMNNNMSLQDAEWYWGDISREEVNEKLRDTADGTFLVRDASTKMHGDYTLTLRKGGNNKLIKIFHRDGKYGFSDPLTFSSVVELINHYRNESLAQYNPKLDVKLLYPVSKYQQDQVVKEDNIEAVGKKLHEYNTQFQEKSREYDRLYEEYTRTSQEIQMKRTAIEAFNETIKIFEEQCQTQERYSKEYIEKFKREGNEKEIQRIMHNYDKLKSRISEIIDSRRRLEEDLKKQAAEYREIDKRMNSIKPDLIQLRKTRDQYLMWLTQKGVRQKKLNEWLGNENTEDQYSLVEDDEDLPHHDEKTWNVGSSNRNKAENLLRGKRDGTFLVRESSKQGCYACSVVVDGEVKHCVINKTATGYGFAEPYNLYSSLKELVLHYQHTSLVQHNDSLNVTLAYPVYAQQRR
Sequence of PI3Kδ (O00329 whole entry): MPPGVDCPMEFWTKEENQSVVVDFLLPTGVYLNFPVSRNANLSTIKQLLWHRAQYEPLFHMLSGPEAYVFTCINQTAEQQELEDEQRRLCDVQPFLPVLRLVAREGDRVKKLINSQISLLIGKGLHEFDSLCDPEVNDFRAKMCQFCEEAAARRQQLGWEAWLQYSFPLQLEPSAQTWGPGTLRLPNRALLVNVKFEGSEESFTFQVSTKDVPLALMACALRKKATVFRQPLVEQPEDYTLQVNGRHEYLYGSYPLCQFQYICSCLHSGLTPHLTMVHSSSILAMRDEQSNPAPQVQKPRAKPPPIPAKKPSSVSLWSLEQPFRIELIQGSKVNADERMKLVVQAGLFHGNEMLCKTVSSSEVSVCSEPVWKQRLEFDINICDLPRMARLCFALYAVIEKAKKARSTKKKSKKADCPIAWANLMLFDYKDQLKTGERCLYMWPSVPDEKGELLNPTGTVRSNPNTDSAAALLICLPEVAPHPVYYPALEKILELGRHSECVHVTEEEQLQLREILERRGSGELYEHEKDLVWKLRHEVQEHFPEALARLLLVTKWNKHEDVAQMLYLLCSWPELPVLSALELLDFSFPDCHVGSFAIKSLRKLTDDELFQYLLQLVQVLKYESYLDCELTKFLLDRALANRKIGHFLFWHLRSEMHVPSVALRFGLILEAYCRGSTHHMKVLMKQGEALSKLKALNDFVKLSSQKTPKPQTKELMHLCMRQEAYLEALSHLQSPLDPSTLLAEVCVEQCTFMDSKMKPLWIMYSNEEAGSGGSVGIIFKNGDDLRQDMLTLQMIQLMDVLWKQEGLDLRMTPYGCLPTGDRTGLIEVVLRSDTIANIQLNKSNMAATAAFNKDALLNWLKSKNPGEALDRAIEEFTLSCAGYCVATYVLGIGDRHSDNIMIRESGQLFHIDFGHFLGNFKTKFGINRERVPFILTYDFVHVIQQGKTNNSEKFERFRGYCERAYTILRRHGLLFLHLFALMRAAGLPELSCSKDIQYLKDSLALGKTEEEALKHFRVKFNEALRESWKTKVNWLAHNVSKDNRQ
Sequence of PI3Kδ (P27986 whole entry partner): as the sequence (P27986 whole entry partner) above
Sequence of PI3Kβ (P42338 whole entry, the tested form may be a part, canonical isoform): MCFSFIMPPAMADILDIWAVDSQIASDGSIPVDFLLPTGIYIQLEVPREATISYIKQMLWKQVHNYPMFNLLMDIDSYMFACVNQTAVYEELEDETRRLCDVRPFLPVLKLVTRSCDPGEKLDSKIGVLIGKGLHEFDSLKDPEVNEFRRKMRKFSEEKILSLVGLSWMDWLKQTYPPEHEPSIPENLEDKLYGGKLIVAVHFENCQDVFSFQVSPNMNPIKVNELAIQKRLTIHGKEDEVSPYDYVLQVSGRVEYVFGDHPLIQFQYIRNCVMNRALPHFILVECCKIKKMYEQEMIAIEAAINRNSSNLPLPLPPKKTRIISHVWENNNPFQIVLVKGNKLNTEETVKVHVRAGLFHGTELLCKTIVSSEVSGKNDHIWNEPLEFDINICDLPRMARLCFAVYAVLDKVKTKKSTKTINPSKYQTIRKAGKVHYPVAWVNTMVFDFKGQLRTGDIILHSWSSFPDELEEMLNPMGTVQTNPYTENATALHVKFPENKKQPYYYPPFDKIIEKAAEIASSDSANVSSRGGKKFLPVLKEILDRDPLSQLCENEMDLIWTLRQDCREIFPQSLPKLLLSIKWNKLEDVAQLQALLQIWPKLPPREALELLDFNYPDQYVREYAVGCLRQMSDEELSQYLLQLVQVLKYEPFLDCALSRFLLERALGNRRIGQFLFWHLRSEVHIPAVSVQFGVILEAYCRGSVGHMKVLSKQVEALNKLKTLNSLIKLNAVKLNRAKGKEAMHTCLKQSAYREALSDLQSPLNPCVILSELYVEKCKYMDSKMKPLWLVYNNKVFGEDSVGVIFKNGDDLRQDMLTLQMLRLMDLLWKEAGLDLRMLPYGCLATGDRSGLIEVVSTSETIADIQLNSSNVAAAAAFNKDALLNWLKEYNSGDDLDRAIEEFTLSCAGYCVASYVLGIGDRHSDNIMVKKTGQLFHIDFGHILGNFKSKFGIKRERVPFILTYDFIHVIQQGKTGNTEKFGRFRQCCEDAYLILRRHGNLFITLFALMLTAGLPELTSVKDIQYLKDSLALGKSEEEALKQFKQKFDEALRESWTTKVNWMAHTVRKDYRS
Sequence of PI3Kβ (P27986 whole entry partner, the tested form may be a part, canonical isoform): as the sequence (P27986 whole entry partner) above

IC50 (PI3Kβ; bound given in uM) [µM]	IC50 (PI3Kδ) [nM]	IC50 (PI3Kα) [µM]	IC50 (PI3Kβ; bound given in nM) [µM]	IC50 (PI3Kγ) [nM]	SMILES
> 1	< 100	> 1			COC(=O)c1ccc(C#Cc2c(N)ncnc2N[C@@H](C)c2nc3cccc(Cl)c3c(=O)n2-c2ccccc2)nc1 [Compound 3a, (S)-methyl 6-((4-amino-6-(1-(5-chloro-4-oxo-3-phenyl-3,4-dihydroquinazolin-2-yl)ethylamino)pyrimidin-5-yl)ethynyl)nicotinate]
> 1	< 100	> 1			C[C@H](Nc1ncnc(N)c1C#Cc1cccnc1)c1nc2cccc(Cl)c2c(=O)n1-c1cc(F)cc(F)c1 [Compound 43a, (S)-2-(1-(6-amino-5-(pyridin-3-ylethynyl)pyrimidin-4-ylamino)ethyl)-5-chloro-3-(3,5-difluorophenyl)quinazolin-4(3H)-one]
	< 100	> 1	< 0.1		CC(O)c1cccc(C#Cc2c(N)ncnc2N[C@@H](C)c2nc3cccc(Cl)c3c(=O)n2-c2ccccc2)n1 (stereo partly drawn) [Compound 157a, 2-((1S)-1-((6-amino-5-((6-(1-hydroxyethyl)pyridin-2-yl)ethynyl)pyrimidin-4-yl)amino)ethyl)-5-chloro-3-phenylquinazolin-4(3H)-one]
> 1	< 100	> 1			Cc1ccc(C#Cc2c(N)ncnc2N[C@@H](C)c2nc3cccc(Cl)c3c(=O)n2-c2cc(F)cc(F)c2)nc1 [Compound 164a, (S)-2-(1-((6-amino-5-((5-methylpyridin-2-yl)ethynyl)pyrimidin-4-yl)amino)ethyl)-5-chloro-3-(3,5-difluorophenyl)quinazolin-4(3H)-one]
	< 100		< 0.1		Cc1cccc2nc([C@H](C)Nc3ncnc(N)c3C#Cc3ccccn3)n(-c3ccccc3)c(=O)c12 [Compound 30a, (S)-2-(1-(6-amino-5-(pyridin-2-ylethynyl)pyrimidin-4-ylamino)ethyl)-5-methyl-3-phenylquinazolin-4(3H)-one]
	< 100	> 1	< 0.1		Cc1cccnc1C#Cc1c(N)ncnc1N[C@@H](C)c1nc2cccc(Cl)c2c(=O)n1-c1ccccc1 [Compound 143a, (S)-2-(1-((6-amino-5-((3-methylpyridin-2-yl)ethynyl)pyrimidin-4-yl)amino)ethyl)-5-chloro-3-phenylquinazolin-4(3H)-one]
	< 100	> 1	< 0.1		C[C@H](Nc1ncnc(N)c1C#Cc1ncccc1C(F)(F)F)c1nc2cccc(Cl)c2c(=O)n1-c1ccccc1 [Compound 142a, (S)-2-(1-((6-amino-5-((3-(trifluoromethyl)pyridin-2-yl)ethynyl)pyrimidin-4-yl)amino)ethyl)-5-chloro-3-phenylquinazolin-4(3H)-one]
	< 100		< 0.1		Cc1ccnc(C#Cc2c(N)ncnc2N[C@@H](C)c2nc3cccc(Cl)c3c(=O)n2-c2ccccc2)c1 [Compound 147a, (S)-2-(1-((6-amino-5-((4-methylpyridin-2-yl)ethynyl)pyrimidin-4-yl)amino)ethyl)-5-chloro-3-phenylquinazolin-4(3H)-one]
> 1	< 100	> 1			C[C@H](Nc1ncnc(N)c1C#Cc1ccc(OC(F)(F)F)cc1)c1nc2cccc(Cl)c2c(=O)n1-c1ccccc1 [Compound 27a, (S)-2-(1-(6-amino-5-((4-(trifluoromethoxy)phenyl)ethynyl)pyrimidin-4-ylamino)ethyl)-5-chloro-3-phenylquinazolin-4(3H)-one]
	< 100		< 0.1		C[C@H](Nc1ncnc(N)c1C#Cc1cc(C(N)=O)ccn1)c1nc2cccc(Cl)c2c(=O)n1-c1ccccc1 [Compound 156a, (S)-2-((4-amino-6-((1-(5-chloro-4-oxo-3-phenyl-3,4-dihydroquinazolin-2-yl)ethyl)amino)pyrimidin-5-yl)ethynyl)isonicotinamide]
	< 100		< 0.1	< 100	C[C@H](Nc1ncnc(N)c1C#Cc1ccc2nc(N)sc2c1)c1nc2cccc(Cl)c2c(=O)n1-c1ccccc1 [Compound 46a, (S)-2-(1-(6-amino-5-((2-aminobenzo [d]thiazol-6-yl)ethynyl)pyrimidin-4-ylamino)ethyl)-5-chloro-3-phenylquinazolin-4(3H)-one]
	< 100		> 0.001	< 100	C[C@H](Nc1ncnc(N)c1C#Cc1cccc(CO)n1)c1nc2cccc(Cl)c2c(=O)n1-c1ccccc1 [Compound 155a, (S)-2-(1-((6-amino-5-((6-(hydroxymethyl)pyridin-2-yl)ethynyl)pyrimidin-4-yl)amino)ethyl)-5-chloro-3-phenylquinazolin-4(3H)-one]
	< 100	> 1	< 0.1		Cc1cccc(C#Cc2c(N)ncnc2N[C@@H](C)c2nc3cccc(Cl)c3c(=O)n2-c2ccccc2)n1 [Compound 141a, (S)-2-(1-((6-amino-5-((6-methylpyridin-2-yl)ethynyl)pyrimidin-4-yl)amino)ethyl)-5-chloro-3-phenylquinazolin-4(3H)-one]
> 1	< 100	> 1			C[C@H](Nc1ncnc(N)c1C#Cc1cncnc1)c1nc2cccc(Cl)c2c(=O)n1-c1ccccc1 [Compound 42a, (S)-2-(1-(6-amino-5-(pyrimidin-5-ylethynyl)pyrimidin-4-ylamino)ethyl)-5-chloro-3-phenylquinazolin-4(3H)-one]
	< 100	> 1	< 0.1		C[C@H](Nc1ncnc(N)c1C#Cc1cnccn1)c1nc2cccc(Cl)c2c(=O)n1-c1ccccc1 [Compound 16a, (S)-2-(1-(6-amino-5-(pyrazin-2-ylethynyl)pyrimidin-4-ylamino)ethyl)-5-chloro-3-phenylquinazolin-4(3H)-one]
	< 100		< 0.1		C[C@H](Nc1ncnc(N)c1C#Cc1ccccn1)c1nc2cccc(Cl)c2c(=O)n1-c1ccccc1 [Compound 50a, (S)-2-(1-(6-amino-5-(pyridin-2-ylethynyl)pyrimidin-4-ylamino)ethyl)-5-chloro-3-phenylquinazolin-4(3H)-one]
> 1	< 100	> 1			C[C@H](Nc1ncnc(N)c1C#Cc1ccc(F)cn1)c1nc2cccc(C(F)F)c2c(=O)n1-c1ccccc1 [Compound 67a, (S)-2-(1-((6-amino-5-((5-fluoropyridin-2-yl)ethynyl)pyrimidin-4-yl)amino)ethyl)-5-(difluoromethyl)-3-phenylquinazolin-4(3H)-one]
> 1	< 100	> 1			C[C@H](Nc1nc(N)nc(N)c1C#Cc1ccc(F)cn1)c1nc2cccc(Cl)c2c(=O)n1-c1cc(F)cc(F)c1 [Compound 78a, (S)-5-chloro-2-(1-((2,6-diamino-5-((5-fluoropyridin-2-yl)ethynyl)pyrimidin-4-yl)amino)ethyl)-3-(3,5-difluorophenyl)quinazolin-4(3H)-one]
> 1	< 100	> 1			C[C@H](Nc1nc(N)nc(N)c1C#Cc1ccc(F)cn1)c1nc2cccc(Cl)c2c(=O)n1-c1ccccc1 [Compound 83a, (S)-5-chloro-2-(1-((2,6-diamino-5-((5-fluoropyridin-2-yl)ethynyl)pyrimidin-4-yl)amino)ethyl)-3-phenylquinazolin-4(3H)-one]
	< 100		< 0.1		Cc1cccc2nc([C@H](C)Nc3ncnc(N)c3C#Cc3cnccn3)n(-c3ccccc3)c(=O)c12 [Compound 98a, (S)-2-(1-((6-amino-5-(pyrazin-2-ylethynyl)pyrimidin-4-yl)amino)ethyl)-5-methyl-3-phenylquinazolin-4(3H)-one]
> 1	< 100	> 1			C[C@H](Nc1ncnc(N)c1C#Cc1ccc(F)cn1)c1nc2c(F)ccc(Cl)c2c(=O)n1-c1cc(F)cc(F)c1 [Compound 84a, (S)-2-(1-((6-amino-5-((5-fluoropyridin-2-yl)ethynyl)pyrimidin-4-yl)amino)ethyl)-5-chloro-3-(3,5-difluorophenyl)-8-fluoroquinazolin-4(3H)-one]
> 1	< 100	> 1			C[C@H](Nc1ncnc(N)c1C#Cc1ccc(C(N)=O)cn1)c1nc2cccc(Cl)c2c(=O)n1-c1cc(F)cc(F)c1 [Compound 136a, (S)-6-((4-amino-6-((1-(5-chloro-3-(3,5-difluorophenyl)-4-oxo-3,4-dihydroquinazolin-2-yl)ethyl)amino)pyrimidin-5-yl)ethynyl)nicotinamide]
> 1		> 1			C[C@H](Nc1ncnc(N)c1C#Cc1ccc(C(F)(F)F)cn1)c1nc2cccc(Cl)c2c(=O)n1-c1cc(F)cc(F)c1 [Compound 134a, (S)-2-(1-((6-amino-5-((5-(trifluoromethyl)pyridin-2-yl)ethynyl)pyrimidin-4-yl)amino)ethyl)-5-chloro-3-(3,5-difluorophenyl)quinazolin-4(3H)-one]
> 1	< 100				C[C@H](Nc1ncnc(N)c1C#Cc1ccccc1)c1nc2cccc(S(C)(=O)=O)c2c(=O)n1-c1ccccc1 [Compound 112a, (S)-2-(1-((6-amino-5-(phenylethynyl)pyrimidin-4-yl)amino)ethyl)-5-(methylsulfonyl)-3-phenylquinazolin-4(3H)-one]
